Here are results for eight compounds from patent US20250179047A1, “5-[7-(3,4-DIHYDRO-1H-ISOQUINOLINE-2-CARBONYL)-1,2,3,4 TETRAHYDROISOQUINOLIN-6-YL]-1H-PYRROLE-3-CARBOXAMIDE DERIVATIVES, PHARMACEUTICAL COMPOSITIONS CONTAINING THEM AND THEIR USES AS PRO-APOPTOTIC AGENTS” (LES LABORATOIRES SERVIER, priority 2022, published 2025).

The test system of assay [1] is KMS-12-PE Bcl-2 G101V. Nature of the assay: In vitro cytotoxicity CellTiter-Glo 48 h, KMS-12-PE Bcl-2 G101V. To be noted: for Ratio (G101V/WT): C50 KMS-12-PE Bcl-2 G101V over C50 KMS-12-PE Bcl-2 WT; for IC50: 48 h, CellTiter-Glo, C50 = concentration needed to reach 50% of the cellular viability. The format is cell-based. The method in brief: (§1)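 KMS-12-PE myeloma cells were lentivirally transduced with wild-type or G101V-mutant Bcl-2 and sorted by TagRFP. They were exposed to compounds as 11-point dose responses for 48 h at 37 °C, 5% CO2. Viability was read by CellTiter-Glo ATP luminescence, and C50 was the concentration giving 50% viability.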

Assay [2] deals with BCL2 G101V (Homo sapiens, UniProt P10415, G101V). Nature of the assay: TR-FRET competitive binding assay, BCL2 G101V. The following applies: BCL2 G101V; Ki determined from IC50; read-out: TR_FRET EKI_Bcl2 G101V. The method in brief: (§2)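 Ki derived from IC50 (11-point dilution, 520/495 nm emission ratio) for displacing a fluorescein-labelled PUMA peptide (2 or 20 nM). Target was 0.5 nM E. coli-expressed Halo-tagged BCL2 (1-207) or BCLXL (2-196), terbium-labelled on Halo. Incubation 2 h at 23°C in pH 7.5 Hepes with 150 mM NaCl and 5% DMSO.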
In general terms: Time-resolved FRET reads energy transfer from a long-lived donor to a nearby acceptor.

Assay [3] deals with BCL2 G101V. Nature of the assay: TR-FRET competitive binding assay, BCL2 G101V. To be noted: ratio Ki BCL2 G101V / Ki BCL2 WT. More on the design: species or system human. The method in brief: as §2
Assay [4] has as its system KMS-12-PE Bcl-2 WT. Nature of the assay: In vitro cytotoxicity CellTiter-Glo 48 h, KMS-12-PE Bcl-2 WT. To be noted: C50 = concentration needed to reach 50% of the cellular viability. The format is cell-based. In outline:
as §1
A general note: ATP-based viability assays read luminescence as a measure of living cells.

In assay [5] the target is BCL2 WT (Homo sapiens (Human), UniProt P10415). The assay is described as follows: TR-FRET competitive binding assay, BCL2 WT. To be noted: Ki determined from IC50, read-out: TR_FRET EKI_Bcl2 WT. In outline:
as §2

For assay [6], the target named is BCL2 D103Y (Homo sapiens, UniProt P10415, D103Y). The assay is described as follows: TR-FRET competitive binding assay, BCL2 D103Y. To be noted: Ki determined from IC50, read-out: TR_FRET EKI_Bcl2 D103Y. In outline:
as §2

In assay [7] the target is BCLXL WT (Homo sapiens (Human), UniProt Q07817). Nature of the assay: TR-FRET competitive binding assay, BCLXL WT. The following applies: for Ki: BCLXL WT, Ki determined from IC50, read-out: TR_FRET EKI BclxL; for TR_FRET EKI BCLxL/WT selectivty ratio: ratio Ki BCLxL / Ki BCL2 WT. The method in brief:
as §2

BCLXL WT, sequence (Q07817 other isoform, or with tags, fused parts or gaps): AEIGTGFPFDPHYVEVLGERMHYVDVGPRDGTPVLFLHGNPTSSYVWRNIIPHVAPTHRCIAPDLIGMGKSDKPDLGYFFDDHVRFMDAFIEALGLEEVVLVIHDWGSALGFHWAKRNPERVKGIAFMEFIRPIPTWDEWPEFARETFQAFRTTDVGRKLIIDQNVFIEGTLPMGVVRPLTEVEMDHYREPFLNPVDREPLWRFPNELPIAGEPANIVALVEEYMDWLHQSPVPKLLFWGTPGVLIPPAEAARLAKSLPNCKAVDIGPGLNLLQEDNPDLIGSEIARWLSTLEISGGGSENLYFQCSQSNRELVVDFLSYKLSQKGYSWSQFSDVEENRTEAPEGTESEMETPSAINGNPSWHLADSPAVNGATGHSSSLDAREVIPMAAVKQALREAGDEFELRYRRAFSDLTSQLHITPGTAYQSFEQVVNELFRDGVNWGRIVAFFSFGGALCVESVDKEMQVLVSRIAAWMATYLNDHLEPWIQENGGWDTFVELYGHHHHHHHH

On to `COCCn1cc(N(C(=O)c2cc(-c3cc4c(cc3C(=O)N3Cc5ccccc5C[C@H]3C)CN(C(=O)Cc3ccc(OCCN5CCOCC5)cc3)CC4)n(C)c2C)c2ccc(O)cc2)cn1` [Example 143, N-(4-hydroxyphenyl)-N-[1-(2-methoxyethyl)pyrazol-4-yl]-1,2-dimethyl-5-(7-{[(3R)-3-methyl-3,4-dihydro-1H-isoquinolin-2-yl]carbonyl}-2-(2-{4-[2-(morpholin-4-yl)ethoxy]phenyl}acetyl)-3,4-dihydro-1H-isoquinolin-6-yl)pyrrole-3-carboxamide], for which the “Ratio (G101V/WT)” value in assay [1] worked out at 12.604. The IC50 (as a rule, the point on the concentration scale where inhibition reaches its midpoint) in assay [1] (Homo sapiens, KMS-12-PE) came to 0.605 µM; in assay [4] (Homo sapiens, KMS-12-PE), 0.048 µM. For the same compound, the Ki in assay [2] is 0.4 nM; in assay [5] it was 0.04 nM; in assay [6] it was 0.1 nM; in assay [7], 3 nM. For the same compound, the “TR_FRET EKI G101V/WT selectivty ratio” value in assay [3] was found to be 12.2. The “TR_FRET EKI BCLxL/WT selectivty ratio” value in assay [7] is on record as 83.3.
`Cc1c(C(=O)N(c2ccc(O)cc2)c2cc(C#N)n(C(F)F)c2C)cc(-c2cc3c(cc2C(=O)N2Cc4ccccc4C[C@H]2CN2CCCCC2)CN(C(=O)Cc2ccc(OCCN(C)C4CC4)cc2)CC3)n1C` [Example 163, N-[5-cyano-1-(difluoromethyl)-2-methyl-pyrrol-3-yl]-5-[2-[2-[4-[2-[cyclopropyl(methyl)amino]ethoxy]phenyl]acetyl]-7-[(3S)-3-(1-piperidylmethyl)-3,4-dihydro-1H-isoquinoline-2-carbonyl]-3,4-dihydro-1H-isoquinolin-6-yl]-N-(4-hydroxyphenyl)-1,2-dimethyl-pyrrole-3-carboxamide]: the “Ratio (G101V/WT)” value in assay [1] was 5.97. Also, the IC50 in assay [1] (Homo sapiens, KMS-12-PE) is 0.0597 µM; in assay [4] (Homo sapiens, KMS-12-PE), 0.01 µM. Also, the Ki was determined as 0.8 nM in assay [2], 0.16 nM in assay [5], 0.64 nM in assay [6] and 8.3 nM in assay [7]. Besides, the “TR_FRET EKI G101V/WT selectivty ratio” value in assay [3] was 5.3. Further, the “TR_FRET EKI BCLxL/WT selectivty ratio” value in assay [7] stood at 51.9.
Take `Cc1c(N(C(=O)c2cc(-c3cc4c(cc3C(=O)N3Cc5ccccc5C[C@H]3CN3CCCCC3)CN(C(=O)Cc3ccc(OCC(C)N5CCOCC5)cc3F)CC4)n(C)c2C)c2ccc(O)cc2)cc(C#N)n1C` (single isomer, unassigned) [Example 141, N-(5-cyano-1,2-dimethyl-1H-pyrrol-3-yl)-5-[2-(2-{2-fluoro-4-[(2R or S)-2-(morpholin-4-yl)propoxy]phenyl}acetyl)-7-[(3S)-3-[(piperidin-1-yl)methyl]-1,2,3,4-tetrahydroisoquinoline-2-carbonyl]-1,2,3,4-tetrahydroisoquinolin-6-yl]-N-(4-hydroxyphenyl)-1,2-dimethyl-1H-pyrrole-3-carboxamide]: the “Ratio (G101V/WT)” value in assay [1] amounted to 2.2379. Also, the IC50 in assay [1] came to 0.019 µM; in assay [4], 0.0085 µM. The Ki in assay [2] was determined as 0.3 nM; in assay [5] it was 0.06 nM; in assay [6] it was 0.2 nM; in assay [7], 1.1 nM. In addition, in assay [3], the “TR_FRET EKI G101V/WT selectivty ratio” value came to 4.7. In addition, the “TR_FRET EKI BCLxL/WT selectivty ratio” value in assay [7] is 17.7.
In the case of `Cc1c(N(C(=O)c2cc(-c3cc4c(cc3C(=O)N3Cc5ccccc5C[C@H]3CN3CCCCC3)CN(C(=O)Cc3ccc(OCCC5COCCO5)cc3F)CC4)n(C)c2C)c2ccc(O)cc2)cc(C#N)n1C` (single isomer, unassigned) [Example 174, N-(5-cyano-1,2-dimethyl-pyrrol-3-yl)-5-[2-[2-[4-[2-((2S or R)-1,4-dioxan-2-yl)ethoxy]-2-fluoro-phenyl]acetyl]-7-[(3S)-3-(1-piperidylmethyl)-3,4-dihydro-1H-isoquinoline-2-carbonyl]-3,4-dihydro-1H-isoquinolin-6-yl]-N-(4-hydroxyphenyl)-1,2-dimethyl-pyrrole-3-carboxamide], in assay [1], the “Ratio (G101V/WT)” value was 5.6751. Also, the IC50 in assay [1] (Homo sapiens, KMS-12-PE) worked out at 0.0248 µM; in assay [4] (Homo sapiens, KMS-12-PE) it was 0.0044 µM. Besides, the Ki in assay [2] stood at 0.5 nM; in assay [5] it was 0.07 nM; in assay [6], 0.3 nM; in assay [7], 2.6 nM. For the same compound, the “TR_FRET EKI G101V/WT selectivty ratio” value in assay [3] was determined as 7.8. In addition, in assay [7], the “TR_FRET EKI BCLxL/WT selectivty ratio” value stood at 38.8.
Consider `Cc1c(N(C(=O)c2cc(-c3cc4c(cc3C(=O)N3Cc5ccccc5C[C@H]3C)CN(C(=O)Cc3ccc(OCCN5CC6(CCS6(=O)=O)C5)cc3)CC4)n(C)c2C)c2ccc(O)cc2)cc(C#N)n1C` [Example 37, N-(5-cyano-1,2-dimethyl-1H-pyrrol-3-yl)-5-(2-{2-[4-(2-{1,1-dioxo-1λ^6-thia-6-azaspiro[3.3]heptan-6-yl}ethoxy)phenyl]acetyl}-7-[(3R)-3-methyl-1,2,3,4-tetrahydroisoquinoline-2-carbonyl]-1,2,3,4-tetrahydroisoquinolin-6-yl)-N-(4-hydroxyphenyl)-1,2-dimethyl-1H-pyrrole-3-carboxamide], for which the “Ratio (G101V/WT)” value in assay [1] is 5.36. In addition, the IC50 in assay [1] (Homo sapiens, KMS-12-PE) is 0.0932 µM; in assay [4] (Homo sapiens, KMS-12-PE), 0.0174 µM. Besides, the Ki in assay [2] stood at 0.3 nM; in assay [5], 0.1 nM; in assay [6], 0.28 nM; in assay [7] it was 1.3 nM. In addition, the “TR_FRET EKI G101V/WT selectivty ratio” value in assay [3] is listed as 2.7. For the same compound, the “TR_FRET EKI BCLxL/WT selectivty ratio” value in assay [7] came to 13.0.
On to `Cc1c(N(C(=O)c2cc(-c3cc4c(cc3C(=O)N3Cc5ccccc5C[C@H]3CN3CCCCC3)CN(C(=O)Cc3ccc(OC(C)(C)CN5CCOCC5)cc3)CC4)n(C)c2C)c2ccc(O)cc2)cc(C#N)n1C` [Example 132, N-(5-cyano-1,2-dimethyl-1H-pyrrol-3-yl)-N-(4-hydroxyphenyl)-1,2-dimethyl-5-{2-[2-(4-{[2-methyl-1-(morpholin-4-yl)propan-2-yl]oxy}phenyl)acetyl]-7-[(3S)-3-[(piperidin-1-yl)methyl]-1,2,3,4-tetrahydroisoquinoline-2-carbonyl]-1,2,3,4-tetrahydroisoquinolin-6-yl}-1H-pyrrole-3-carboxamide], for which the “Ratio (G101V/WT)” value in assay [1] turned out to be 7.2727. The IC50 in assay [1] (Homo sapiens, KMS-12-PE) worked out at 0.48 µM; in assay [4] (Homo sapiens, KMS-12-PE), 0.066 µM. The Ki was 2.9 nM in assay [2], 0.14 nM in assay [5], 0.37 nM in assay [6] and 12 nM in assay [7]. In assay [3], the “TR_FRET EKI G101V/WT selectivty ratio” value amounted to 20.4. Moreover, in assay [7], the “TR_FRET EKI BCLxL/WT selectivty ratio” value is given as 85.7.
As for `Cc1c(N(C(=O)c2cc(-c3cc4c(cc3C(=O)N3Cc5ccccc5C[C@H]3C)CN(C(=O)Cc3ccc(OCCC5CCOCC5)nc3)CC4)n(C)c2C)c2ccc(O)cc2)cc(C#N)n1C` [Example 59, N-(5-cyano-1,2-dimethyl-1H-pyrrol-3-yl)-N-(4-hydroxyphenyl)-1,2-dimethyl-5-{7-[(3R)-3-methyl-1,2,3,4-tetrahydroisoquinoline-2-carbonyl]-2-(2-{6-[2-(oxan-4-yl)ethoxy]pyridin-3-yl}acetyl)-1,2,3,4-tetrahydroisoquinolin-6-yl}-1H-pyrrole-3-carboxamide], the “Ratio (G101V/WT)” value in assay [1] was found to be 5.15. The IC50 in assay [1] (Homo sapiens, KMS-12-PE) stood at 0.0331 µM; in assay [4] (Homo sapiens, KMS-12-PE), 0.0064 µM. Besides, the Ki came out at 0.7 nM in assay [2], 0.16 nM in assay [5], 0.4 nM in assay [6] and 3 nM in assay [7]. Further, in assay [3], the “TR_FRET EKI G101V/WT selectivty ratio” value came out at 4.6. Moreover, the “TR_FRET EKI BCLxL/WT selectivty ratio” value in assay [7] was determined as 19.1.
On to `Cc1c(N(C(=O)c2cc(-c3cc4c(cc3C(=O)N3Cc5ccccc5C[C@H]3C)CN(C(=O)Cc3ccc(N5CCN6CC(F)(F)C[C@H]6C5)cc3F)CC4)n(C)c2C)c2ccc(O)cc2)cc(C#N)n1C` [Example 40, 5-[2-(2-{4-[(8aS)-7,7-difluoro-hexahydropyrrolo[1,2-a]piperazin-2-yl]-2-fluorophenyl}acetyl)-7-{[(3R)-3-methyl-3,4-dihydro-1H-isoquinolin-2-yl]carbonyl}-3,4-dihydro-1H-isoquinolin-6-yl]-N-(5-cyano-1,2-dimethylpyrrol-3-yl)-N-(4-hydroxyphenyl)-1,2-dimethylpyrrole-3-carboxamide], for which, in assay [1], the “Ratio (G101V/WT)” value is on record as 4.54. Also, the IC50 in assay [1] (Homo sapiens, KMS-12-PE) is 0.0426 µM; in assay [4] (Homo sapiens, KMS-12-PE), 0.0094 µM. The Ki in assay [2] amounted to 3 nM; in assay [5], 0.68 nM; in assay [6] it was 2.11 nM; in assay [7], 7 nM. Moreover, in assay [3], the “TR_FRET EKI G101V/WT selectivty ratio” value is reported as 4.4. In assay [7], the “TR_FRET EKI BCLxL/WT selectivty ratio” value was determined as 10.3.
